Where two headings read alike, the source gives them in different places.
Experiments:
[1] = system: patients with Alzheimer's Disease; conditions: for Agitation score / Anxiety score / Apathy score / Delusions score / Depression score / Disinhibition score / Elation score / Hallucinations score / Irritability score / Wandering score / Total NPI score: All Patients, negative = improvement; for NPI total score, country adjusted difference vs placebo: all patients
Protocol: A retrospective meta-analysis on the combined data was then conducted and effects on individual symptoms assessed.
Country adjusted differences were calculated as the difference between the adjusted least square means; allowing estimates from each country to be combined in a manner whereby the most precise estimate is given more weight.
Following this analysis, a further retrospective analysis was conducted on the subgroup of patients who presented with severe behavioural disturbance at the start of the study (defined as a baseline NPI score>20). Country adjusted differences were calculated as the difference between the adjusted least square means; allowing estimates from each country to be combined in a manner whereby the most precise estimate is given more weight.

Male Sprague Dawley rats [2] = conditions: rat, 30 min pretreatment
Male Sprague Dawley rats [3] = assay: Catalepsy in the rat; conditions: 90 min after dosing, doses up to 0.3 mg/kg po
Male Sprague Dawley rats [4] = conditions: rat, in vivo, 2.8 mg/kg, 90 min
[5] = Patients with baseline NPI >20, 25 μg bid
[6] = Patients with baseline NPI >20, 50 μg uid

CO/N=C(\C#N)[C@H]1CN2CCC1CC2 [Compound (I), [R-(Z)]-α-(methoxyimino)-α-(1-azabicyclo[2.2.2]oct-3-yl)acetonitrile]
Agitation score ([1]; 25 μg bid): −0.5 | Anxiety score ([1]; 25 μg bid): −0.9 | Apathy score ([1]; 25 μg bid): −1.1 | Delusions score ([1]; 25 μg bid): −0.7 | Depression score ([1]; 25 μg bid): −0.3 | Disinhibition score ([1]; 25 μg bid): −0.7 | Elation score ([1]; 25 μg bid): −1.1 | Hallucinations score ([1]; 25 μg bid): −1.5 | Irritability score ([1]; 25 μg bid): −0.4 | Wandering score ([1]; 25 μg bid): −1.2 | Total NPI score ([1]; 25 μg bid, p 0.064 vs placebo): +0.7 | Agitation score ([1]; 50 μg uid): −0.6 | Anxiety score ([1]; 50 μg uid): −1.5 | Apathy score ([1]; 50 μg uid): −1.5 | Delusions score ([1]; 50 μg uid): −0.6 | Depression score ([1]; 50 μg uid): −0.6 | Disinhibition score ([1]; 50 μg uid): −0.7 | Elation score ([1]; 50 μg uid): −1.9 | Hallucinations score ([1]; 50 μg uid): −0.7 | Irritability score ([1]; 50 μg uid): −0.9 | Wandering score ([1]; 50 μg uid): −1.0 | Total NPI score ([1]; 50 μg uid, p 0.026 vs placebo): +0.3 | Agitation endpoint score: change from baseline [1, 5]: 0 | Anxiety endpoint score: change from baseline [1, 5]: −1.9 | Apathy endpoint score: change from baseline [1, 5]: −1.4 | Delusions endpoint score: change from baseline [1, 5]: −0.8 | Depression endpoint score: change from baseline [1, 5]: 0 | Disinhibition endpoint score: change from baseline [1, 5]: −0.8 | Elation endpoint score: change from baseline [1, 5]: −1.7 | Hallucinations endpoint score: change from baseline [1, 5]: −2.1 | Irritability endpoint score: change from baseline [1, 5]: −0.7 | Wandering endpoint score: change from baseline [1, 5]: −1.7 | Total NPI endpoint score: change from baseline ([1]; Patients with baseline NPI >20, 25 μg bid, p 0.043 vs placebo): −4.0 | Agitation endpoint score: change from baseline [1, 6]: −0.6 | Anxiety endpoint score: change from baseline [1, 6]: −1.8 | Apathy endpoint score: change from baseline [1, 6]: −1.6 | Delusions endpoint score: change from baseline [1, 6]: −1.4 | Depression endpoint score: change from baseline [1, 6]: −1.1 | Disinhibition endpoint score: change from baseline [1, 6]: −1.1 | Elation endpoint score: change from baseline [1, 6]: −2.5 | Hallucinations endpoint score: change from baseline [1, 6]: −1.4 | Irritability endpoint score: change from baseline [1, 6]: −1.2 | Wandering endpoint score: change from baseline [1, 6]: −1.3 | Total NPI endpoint score: change from baseline ([1]; Patients with baseline NPI >20, 50 μg uid, p 0.019 vs placebo): −6.1 | NPI total score, country adjusted difference vs placebo ([1]; 50 μg uid, p=0.026, 95% CI −4.1, −0.3): −2.1 | NPI total score, country adjusted difference vs placebo ([1]; 25 kg bid (so in the source), p=0.064, 95% CI −3.8, 0.1): −1.8 | total NPI score, country adjusted difference vs placebo ([1]; patients with baseline NPI>20, 25 μg bid, p=0.043, 95% CI −14.1, −0.2): −7.18 | total NPI score, country adjusted difference vs placebo ([1]; patients with baseline NPI>20, 50 μg uid, p=0.019, 95% CI −14.4, −1.3): −7.86 | dose at which reversal of amphetamine-induced hyperactivity reached significance (P<0.01) (Male Sprague Dawley rats [2]; 0.01-0.3 mg/kg po): 0.3 mg/kg | ED50 for reversal of amphetamine-induced hyperactivity (Male Sprague Dawley rats [2]; po, 95% CI=0.14-0.75): 0.25 mg/kg | catalepsy (Male Sprague Dawley rats [3]): did not produce catalepsy

O=C(CCCN1CCC(O)(c2ccc(Cl)cc2)CC1)c1ccc(F)cc1 [haloperidol, Haloperidol]
rats in which catalepsy was produced (Male Sprague Dawley rats [4]): 6 of 6
